Results from patent US6596738B1, “Heterocyclic compound, composition and method for inhibiting adenosine deaminase” (Fujisawa Pharmaceutical Co., Ltd., priority 1999, dated 2003).

What was measured:
Human ADA [1] = molecular target: T1, Human ADA (Homo sapiens, UniProt P00813); assay: Adenosine deaminase (ADA) enzyme assay [2], IC50 of Vmax inhibition; format: biochemical
T1 construct: made in house; host or cells: ADA-deficient bacterial strain
T1 sequence (P00813 1-363): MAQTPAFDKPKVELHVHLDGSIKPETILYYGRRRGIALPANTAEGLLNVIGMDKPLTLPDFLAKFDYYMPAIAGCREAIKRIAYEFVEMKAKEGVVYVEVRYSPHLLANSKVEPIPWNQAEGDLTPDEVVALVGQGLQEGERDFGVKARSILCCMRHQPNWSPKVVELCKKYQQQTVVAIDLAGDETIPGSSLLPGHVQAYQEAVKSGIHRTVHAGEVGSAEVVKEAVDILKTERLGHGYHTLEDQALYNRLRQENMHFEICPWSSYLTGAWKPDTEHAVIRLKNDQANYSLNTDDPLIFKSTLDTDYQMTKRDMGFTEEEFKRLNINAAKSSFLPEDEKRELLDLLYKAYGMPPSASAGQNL
Description: Human ADA was expressed and purified from ADA-deficient bacterial strain. Reaction mixture of a total volume of 200 μl contained 0.16 μg/ml of ADA, 0.1 mM of adenosine and test compound in 10 mM phosphate buffer saline (pH 7.4). The reaction was started by addition of ADA to a mixture of adenosine and test compound.

Human ADA [2] = molecular target: T1, Human ADA; assay: Adenosine deaminase (ADA) enzyme assay [1], Ki by Dixon plot; format: biochemical; conditions: 25 mU/ml ADA, varying concentrations of adenosine, 10 mM phosphate buffer saline pH 7.4, room temperature, A265 for 5 minutes
Description: The reaction velocity (V) is measured by a change in absorbance at 265 nm (A265) resulting from the deamination of adenosine. Human ADA was expressed and purified from ADA-deficient bacterial strain. Reaction mixtures in a total volume of 200 μl contained 25 mU/ml of ADA and varying concentrations of adenosine and test compounds in 10 mM phosphate buffer saline (pH 7.4). The reaction was started by addition of ADA to a mixture of adenosine and test compound. The reaction was followed at room temperature by recording decrease in A265 for 5 minutes in SPECTRAmax 250 (Molecular Devices, USA) to automatically calculate Vmax. The inhibition constant (Ki) values of test compounds were determined by Dixon plot.

C[C@H](O)[C@@H](CCc1cccc2ccccc12)n1cncn1 [Compound A, 1-[(2S,3R)-2-Hydroxy-5-(1-naphthyl)-3-pentyl]-1,2,4-triazole]
IC50 (Human ADA [1]): 27 nM

NC(=O)c1cn([C@@H](CO)CCn2ccc3ccc(NC(=O)CCCc4ccccc4)cc32)cn1 [Example 6-(2), 1-[(R)-1-Hydroxy-4-(6-(4-phenylbutyrylamino)indol-1-yl)-2-butyl]imidazole-4-carboxamide]
Ki (Human ADA [2]): 16 nM

NC(=O)c1cn([C@@H](CO)CCn2ccc3ccccc32)cn1 [Example 2, 1-[(R)-1-hydroxy-4-(1-indolyl)-2-butyl]imidazole-4-carboxamide]
melting point: 127 to 130 °C
